Results as given in patent US6946558B2 (CJ Corp., priority 2001, dated 2005).

Legend:
cyclooxygenase-1 = molecular target: T1, cyclooxygenase-1 (Homo sapiens, UniProt P23219); assay: Cyclooxygenase-1 inhibition in U-937 cells (PGE2 quantitation after arachidonic acid); type: cell-based; conditions: for Inhibitory effects of cyclooxygenase (COX): COX-1 (U-937): U-937 cells; for inhibition effect against cyclooxygenase-1 compared with standard substance SC-58635: in words, compared with SC-58635
T1 construct: endogenous in cells; host or cells: U-937 (Korean cell line bank)
Experimental: (§1) In order to investigate pharmacologically the selective inhibition activity against cyclooxygenase-2 enzyme, the inhibitive effects against cyclooxygenase-1 and cyclooxygenase-2 were measured by two methods as follows.
Then, the pellet was diluted with 1×HBSS (Hank's balanced salt solutin) at the concentration of 1×10^6 cells/ml, and 1 ml of them was transferred into each of 12-well plates, and then dissolved with DMSO. 5 μl of the diluted sample solution and 5 μl of DMSO vehicle were added therein and mixed, and the mixture was cultured at 37° C. in CO2 incubator for 15 minutes. Arachidonic acid as a substrate was dissolved in ethanol to prepare a stock solution with a concentration of 10 mM, followed by diluting with 1×HBSS to prepare the solution of 1 mM. 10 μl of 1 mM Arachidonic acid solution was added to each of the treated wells and the mixture was cultured at 37° C. in CO2 incubator for 30 minutes. The cell solution of each well was collected in the centrifuge tube and centrifuged at 4° C., for 5 minutes at 10,000 rpm. As PGE2 existed in the supernatant separated from collected cell, the concentration of PGE2 was quantitated by using monoclonal kit from Cayman Chemicals, and the concentration of samples and vehicle were compared to estimate the inhibition ratio (%) of each compound against cyclooxygenase-1. Ultimately, the inhibition effect against the cyclooxygenase-1 enzyme was obtained from the result.

cyclooxygenase-2 = molecular target: T2, cyclooxygenase-2 (Mus musculus, UniProt Q05769); assay: Cyclooxygenase-2 inhibition in Raw 264.7 cells (interferon γ/LPS induced, PGE2 EIA); type: cell-based; conditions: for Inhibitory effects of cyclooxygenase (COX): COX-2 (Raw 264.7): Raw 264.7 cells; for selectivity of cyclooxygenase-2 compared with standard substance: COX-2 versus COX-1, compared with SC-58635
T2 construct: endogenous in cells; host or cells: Raw 264.7 (Korean cell line bank), induced with interferon γ and LPS
T2 sequence (Q05769 18-604): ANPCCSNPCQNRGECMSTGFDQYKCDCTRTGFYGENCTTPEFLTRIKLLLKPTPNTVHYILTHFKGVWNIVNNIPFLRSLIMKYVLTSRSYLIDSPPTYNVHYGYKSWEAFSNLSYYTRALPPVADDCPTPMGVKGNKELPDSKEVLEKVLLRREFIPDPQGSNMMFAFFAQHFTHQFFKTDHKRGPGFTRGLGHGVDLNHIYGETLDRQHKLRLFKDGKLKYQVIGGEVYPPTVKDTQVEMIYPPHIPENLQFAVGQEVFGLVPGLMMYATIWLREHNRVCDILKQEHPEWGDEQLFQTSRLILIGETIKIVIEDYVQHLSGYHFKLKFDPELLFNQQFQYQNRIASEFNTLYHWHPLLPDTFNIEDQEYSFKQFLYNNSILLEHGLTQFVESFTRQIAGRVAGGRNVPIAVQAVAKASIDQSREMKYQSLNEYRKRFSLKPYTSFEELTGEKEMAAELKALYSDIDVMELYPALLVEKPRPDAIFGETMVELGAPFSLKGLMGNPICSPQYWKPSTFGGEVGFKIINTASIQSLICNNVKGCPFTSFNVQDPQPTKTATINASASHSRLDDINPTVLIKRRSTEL
Experimental: as §1
And then, each samples were replaced with new media and cultured for 30 minutes. In addition, the samples were treated with 100 units/ml of interferon γ and 100 ng/ml of lipopolysaccharide (LPS), and cultured for 18 hours. Then, the media was transferred to other tubes and the PGE 2 was quantitated by using EIA kit from Cayman Chemicals.

T1 sequence (P23219 24-599): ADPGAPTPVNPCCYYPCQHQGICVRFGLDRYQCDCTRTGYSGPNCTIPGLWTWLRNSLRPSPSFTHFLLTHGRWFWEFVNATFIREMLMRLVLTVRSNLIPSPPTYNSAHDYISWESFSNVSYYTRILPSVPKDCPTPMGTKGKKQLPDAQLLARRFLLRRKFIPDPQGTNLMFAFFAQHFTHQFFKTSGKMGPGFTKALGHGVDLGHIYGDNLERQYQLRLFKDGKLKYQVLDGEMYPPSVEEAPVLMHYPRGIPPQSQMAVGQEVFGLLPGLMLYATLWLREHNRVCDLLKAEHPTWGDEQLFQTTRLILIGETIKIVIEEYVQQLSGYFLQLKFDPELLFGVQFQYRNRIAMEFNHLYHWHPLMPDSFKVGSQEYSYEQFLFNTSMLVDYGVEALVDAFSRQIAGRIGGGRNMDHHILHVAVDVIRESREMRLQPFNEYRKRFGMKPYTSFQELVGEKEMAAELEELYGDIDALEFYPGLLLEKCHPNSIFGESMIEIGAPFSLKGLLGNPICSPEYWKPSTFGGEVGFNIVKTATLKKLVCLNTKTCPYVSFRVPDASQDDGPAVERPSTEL

SMILES | Inhibitory effects of cyclooxygenase (COX): COX-1 (U-937) (cyclooxygenase-1; 1 μM) [% inhibition] | Inhibitory effects of cyclooxygenase (COX): COX-1 (U-937) (cyclooxygenase-1; 3 μM) [% inhibition] | Inhibitory effects of cyclooxygenase (COX): COX-1 (U-937) (cyclooxygenase-1; 10 μM) [% inhibition] | inhibition effect against cyclooxygenase-1 compared with standard substance SC-58635 (cyclooxygenase-1) | Inhibitory effects of cyclooxygenase (COX): COX-2 (Raw 264.7) (cyclooxygenase-2; 30 nM) [% inhibition] | Inhibitory effects of cyclooxygenase (COX): COX-2 (Raw 264.7) (cyclooxygenase-2; 100 nM) [% inhibition] | Inhibitory effects of cyclooxygenase (COX): COX-2 (Raw 264.7) (cyclooxygenase-2; 300 nM) [% inhibition] | selectivity of cyclooxygenase-2 compared with standard substance (cyclooxygenase-2; in words) | inhibition effect against cyclooxygenase-2 compared with standard substance SC-58635 (cyclooxygenase-2; in words, low concentration, same condition as SC-58635)
C[C@H](CO)COc1cccnc1-c1ccc(S(C)(=O)=O)nc1 [Example 5, (R)-3-(6′-methylsulfonyl-2,3′-bipyridine-3-yloxy)-2-methyl-1-propanol] | 13.5 | 16.2 | 18.9 | much lower level than a comparative substance | 10.3 | 11.01 | 20.1 | hardly different | –
CC(C)Oc1cccnc1-c1ccc(S(C)(=O)=O)nc1 [Example 1, 3-isopropyloxy-6′-methylsulfonyl-2,3′-bipyridinyl] | 0.2 | 7.5 | 11.0 | much lower level than a comparative substance | 10.2 | 14.2 | 15.2 | hardly different | –
CS(=O)(=O)c1ccc(-c2ncccc2OC2CCCCC2)cn1 [Example 3, 3-cyclohexyloxy-6′-methylsulfonyl-2,3′-bipyridinyl] | 11.2 | 12.5 | 14.0 | – | 23.5 | 30.2 | 42.2 | – | –
CS(=O)(=O)c1ccc(-c2ncccc2OC2CCCC2)cn1 [Example 2, 3-cyclopentyloxy-6′-methylsulfonyl-2,3′-bipyridinyl] | 12.7 | 14.3 | 21.0 | much lower level than standard substance | 40.3 | 53.2 | 63.5 | better than any other standard substances | more excellent in low concentration than standard substance
CC(C)=CCOc1cccnc1-c1ccc(S(C)(=O)=O)nc1 [Example 4, 6′-methylsulfonyl-3-(3-methyl-2-butenyloxy)-2,3′-bipyridinyl] | 12.2 | 15.6 | 17.0 | – | 15.8 | 28.5 | 40.8 | – | –
C[C@@H](CO)COc1cccnc1-c1ccc(S(C)(=O)=O)nc1 [Example 6, (S)-3-(6′-methylsulfonyl-2,3′-bipyridine-3-yloxy)-2-methyl-1-propanol] | 14.3 | 17.2 | 24.5 | much lower level than a comparative substance | 9.3 | 12.0 | 21.0 | hardly different | –
